Key:
[1] = system: MRC-5 human lung fibroblast cell line; experiment: MTT cytotoxicity assay in MRC-5; type: cell-based
Protocol: (§1) The in vitro cytotoxic activity of the novel water-soluble amino acid derivatives of HQCl and their RhCp* and RuCym complexes was measured by the thiazolyl blue tetrazolium bromide (MTT) assay in two human colon adenocarcinoma cell lines (Colo-205 and Colo-320) and in one non-tumoral human lung fibroblast cell line (MRC-5). The results are given in terms of IC50 values (Table 1). Colo-205 is a drug-sensitive cell line with a normal ABCB1 transporter expression pattern, while Colo-320 is multidrug-resistant and overexpresses the ABCB1 system.
(§2) All cell culture reagents were obtained from Sigma-Aldrich and plasticware from Sarstedt (Nümbrecht, Germany). Human colonic Colo-205 doxorubicin-sensitive and Colo-320/MDR-LRP multidrug-resistant adenocarcinoma and MRC-5 human embryonal lung fibroblast cell lines were purchased from LGC Promochem, Teddington, UK. The colonic adenocarcinoma cells were cultured in Roswell Park Memorial Institute (RPMI) 1640 medium supplemented with 10% heat-inactivated fetal bovine serum, 2 mM L-glutamine, 1 mM sodium pyruvate and […]. The MRC-5 cell line was cultured in Eagle’s Minimal Essential Medium (EMEM, Sigma-Aldrich, St. Louis, MO, USA) supplemented with a non-essential amino acid (NEAA) mixture (Sigma-Aldrich, St. Louis, MO, USA) a selection of vitamins, 10% heat-inactivated foetal bovine serum (FBS), 2 mM L-glutamine (Sigma-Aldrich, St. Louis, MO, USA), 1 mM Na-pyruvate (Sigma-Aldrich, St. Louis, MO, USA), nystatin (Sigma-Aldrich, St. Louis, MO, USA) and a penicillin-streptomycin mixture (Sigma-Aldrich, St. Louis, MO, USA) in con-centrations of 100 U/L and 10 mg/L, respectively. The cells were incubated at 37 °C, in a 5% CO2, 95% air atmosphere. All cell lines were detached with Trypsin-Versene (EDTA) solution for 5 min at 37 °C.
(§3) The tested compounds were dissolved in 10% (v/v) DMSO/H2O using 4 mM concentration. Doxorubicin (Merck, Darmstadt, Germany) was used as a positive control. Then stock solutions were diluted in complete culture medium, and two-fold serial dilutions of compounds were prepared in 100 μL of the medium, horizontally. The semi-adherent colonic adenocarcinoma cells were treated with Trypsin-Versene (EDTA) solution. They were adjusted to a density of 1 × 10^4 cells in 100 μL of RPMI 1640 or EMEM medium and were added to each well, with the exception of the medium control wells. The final volume of the wells containing compounds and cells was 200 μL. The plates containing Colo-205, Colo-320 or MRC-5 cells were incubated at 37 °C for 72 h; at the end of the incubation period, 20 μL of MTT solution (from a stock solution of 5 mg/mL) were added to each well. After incubation at 37 °C for 4 h, 100 μL of SDS solution (10% in 0.01 M HCI) were added to each well, and the plates were further incubated at 37 °C overnight. […] The IC50 values were obtained from at least 3 independent experiments.

Colo-205 cells = experiment: Annexin V-FITC / propidium iodide apoptosis induction assay, flow cytometry; type: cell-based, human; details: 25 μM, 3 h induction
Source text: 12H-Benzo[α]phenothiazine (M627) and cisplatin were used as positive controls. Annexin-V assay offers the possibility of detecting early phases of apoptosis. Apoptosis is a morphologically and biochemically distinct form of programmed cell death, which is the preferred mode of action for an anticancer compound. PI was used to distinguish between viable, early apoptotic and necrotic or late apoptotic cells. […] In order to better understand the different behavior of the studied compounds, an in-depth analysis of the various solution (physico-)chemical properties of the ligands and complexes were performed.
The assay was carried out using an Annexin V-FITC Apoptosis Detection Kit from Sigma-Aldrich according to the manufacturer’s instructions. The concentration of the Colo-205 cell suspension was adjusted to approximately 0.5 × 10^6 cells per mL in RPMI 1640 medium, and the cell suspension was distributed in 1 mL aliquots into a 24-well plate and then incubated overnight at 37 °C and 5% CO2. The next day, the medium was removed and replaced by 1 mL RPMI 1640 medium containing the compounds except for the control samples. […] After the incubation period, the samples were washed with PBS, and a fresh medium was added to the samples. The cells were incubated overnight at 37 °C and 5% CO2. The next day, 200 μL 0.25% Trypsin (Trypsin-Versen) was added to the samples until cells appeared detached, followed by the addition of 400 μL of medium supplemented with 10% bovine serum. The cells were collected in Eppendorf tubes and centrifuged at 2000× g for 2 min. The harvested cells were re-suspended in a fresh serum-free RPMI 1640 culture medium. After this step, the apoptosis assay was carried out according to the protocol of the kit. The fluorescence was analyzed immediately using a ParTec CyFlow flow cytometer (Partec GmbH, Münster, Germany).

[2] = system: Colo-205 human colon adenocarcinoma cell line (doxorubicin-sensitive); experiment: MTT cytotoxicity assay in Colo-205; type: cell-based; details: 72 h incubation
Protocol: as §1, §2, §3

[3] = system: Colo-320 human colon adenocarcinoma cell line (multidrug-resistant); experiment: MTT cytotoxicity assay in Colo-320; type: cell-based; details: 72 h incubation
Protocol: as §1, §2, §3

[4] = target: T1, HSA site I (subdomain IIA) (Homo sapiens, UniProt P02768); experiment: Trp-214 quenching, spectrofluorometry; type: binding; details: cHSA = 1 µM, pH 7.4 (PBS’), λEX = 295 nm
T1 construct: purchased Sigma-Aldrich A8763
T1 sequence (P02768 25-609): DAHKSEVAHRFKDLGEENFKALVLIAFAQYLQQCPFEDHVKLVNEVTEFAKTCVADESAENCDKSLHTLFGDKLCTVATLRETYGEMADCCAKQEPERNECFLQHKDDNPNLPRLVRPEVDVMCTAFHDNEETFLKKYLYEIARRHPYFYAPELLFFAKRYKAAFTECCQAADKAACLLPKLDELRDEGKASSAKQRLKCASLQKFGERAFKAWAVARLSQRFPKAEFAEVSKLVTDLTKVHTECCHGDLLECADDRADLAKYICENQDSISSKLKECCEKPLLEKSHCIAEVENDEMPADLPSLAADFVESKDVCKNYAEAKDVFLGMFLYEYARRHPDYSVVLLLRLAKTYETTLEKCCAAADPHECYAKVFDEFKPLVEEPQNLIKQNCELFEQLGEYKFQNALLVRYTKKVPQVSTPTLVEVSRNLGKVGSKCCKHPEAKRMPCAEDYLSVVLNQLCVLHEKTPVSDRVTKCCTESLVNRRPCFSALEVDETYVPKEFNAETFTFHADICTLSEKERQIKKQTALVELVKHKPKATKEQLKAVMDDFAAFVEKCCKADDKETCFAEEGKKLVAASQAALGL
Protocol: (§4) Tryptophan (Trp-214) quenching and dansylglycine (DG) site marker displacement experiments were performed to calculate binding constants for site I and II, respectively, similar to our previous works.
(§5) Fluorescence measurements were carried out on a Fluoromax (Horiba Jobin Yvon, Longjumeau, France) spectrofluorometer using 1 cm × 1 cm quartz cuvette. Samples contained 1 µM HSA or 1 µM DG and 1 µM HSA, or 20 µM (nucleotide) ct-DNA and 5 µM EB, and the complex concentration was varied between 0 and 40 µM or 0 and 300 µM, respectively. Spectroscopic measurements were carried out on individually prepared samples. Excitation wavelengths were 295 nm for Trp-214 quenching, 340 nm for the DG displacement studies and 510 nm for the ct-DNA–EB system. The calculated conditional stability constants for HSA–complex species were obtained using the computer program HypSpec. Calculations always were based on data obtained from at least two independent measurements. Self-absorbance and inner filter effect had to be taken into account, and corrections were made as was described in our former works.

[5] = target: T2, HSA site II (subdomain IIIA) (Homo sapiens, UniProt P02768); experiment: Dansylglycine (DG) site marker displacement, spectrofluorometry; type: binding; details: cHSA = 1 µM, cDG = 1 µM, pH 7.4 (PBS’)
T2 construct: purchased Sigma-Aldrich A8763
T2 sequence (P02768 25-609): as above
Protocol: as §4, §5

Compound | IC50 ([1]; Homo sapiens, MRC5, 72 h incubation) | cell death (Q1, A− PI+), gated events (Colo-205 cells) | early apoptosis (Q3, A+ PI−), gated events (Colo-205 cells) | late apoptosis and necrosis (Q2, A+ PI+), gated events (Colo-205 cells) | IC50 [2] | IC50 [3] | IC50 ([1]; 72 h incubation) | Trp-214 Quenching logKQ′, Site I [4] | DG Displacement logKDG′, Site II [5] | late apoptosis and necrosis (Q2, A+ PI+), gated events (Colo-205 cells; listed as RhCp*‒HQCl-D-hPro)
O=C(O)[C@H]1CCCCN1Cc1cc(Cl)c2cccnc2c1O [HQCl-D-hPro, (R)-5-chloro-7-((homoproline-1-yl)methyl)8-hydroxyquinoline] | 3.63 ± 0.1 µM | 27.5% | 0.987% | 9.1% |  |  |  |  |  | 
Cc1c(C)c(C)[c-](C)c1C.O=C(O)[C@H]1CCC[NH+]1Cc1cc(Cl)c2cccnc2c1[O-].[Cl-].[Cl-].[Rh+3] [RhCp*–HQCl-D-Pro, [RhCp*(HQCl-D-Pro)Cl]Cl] |  |  |  |  | 31.5 ± 1.4 µM | 34.3 ± 1 µM | 82.1 ± 5.1 µM | 5.6 ± 0.1 | 5.5 ± 0.1 | 
Cc1c(C)c(C)[c-](C)c1C.O=C(O)[C@H]1CCCC[NH+]1Cc1cc(Cl)c2cccnc2c1[O-].[Cl-].[Cl-].[Rh+3] [RhCp*–HQCl-D-hPro, [RhCp*(HQCl-D-hPro)Cl]Cl] |  | 20.7% | 0.838% | 7.5% | 21.5 ± 0.6 µM | 18.9 ± 0.54 µM | 37.6 ± 2.3 µM | 5.6 ± 0.1 | 5.4 ± 0.1 | 7.50%
Cc1ccc(C(C)C)cc1.O=C(O)[C@H]1CCC[NH+]1Cc1cc(Cl)c2cccnc2c1[O-].[Cl-].[Cl-].[Ru+2] [RuCym–HQCl-D-Pro, [RuCym(HQCl-D-Pro)Cl]Cl] |  | 27.9% | 0.288% | 5.37% | > 100 µM | > 100 µM | > 100 µM | 5.5 ± 0.1 | 5.6 ± 0.1 | 
Cc1ccc(C(C)C)cc1.O=C(O)[C@H]1CCCC[NH+]1Cc1cc(Cl)c2cccnc2c1[O-].[Cl-].[Cl-].[Ru+2] [RuCym–HQCl-D-hPro, [RuCym(HQCl-D-hPro)Cl]Cl] |  |  |  | 5.4% | > 100 µM | > 100 µM | > 100 µM | 5.3 ± 0.1 | 5.7 ± 0.1 | 
